melting point [°C]	Compound
138 to 139	OC1CSC(Oc2cccc(-c3ccccn3)c2)C(O)C1O (stereo not given)
194 to 195	CN(C)C=Nc1c(Cl)cc(N=Cc2cc(Cl)cc(Cl)c2)cc1Cl
170 to 172	O=C(O)CCCOc1ccc(C23CC4CC(CC(C4)C2)C3)cc1
178 to 180	Fc1ccc(Nc2ncnc3cnc(N4CCC(N5CCNCC5)CC4)nc23)cc1Cl
145 to 146	CC(C(=O)O)c1cc(CC(=O)O)c(-c2ccccc2)s1 (stereo not given)
74 to 76	Cc1ccc(OC(CCCCCc2ccc(Cl)cc2)C(=O)O)cc1 (stereo not given)
130 to 132	Cc1cc(Cl)n2nc(CN=[N+]=[N-])nc2n1
185 to 186	C[C@]1(COc2ccc3nc(N4CCC(Cc5ccc(OC(F)(F)F)cc5)CC4)ccc3c2)Cn2cc([N+](=O)[O-])nc2O1
211 to 213	Cc1ccc(S(=O)(=O)Oc2ccc3c4c(nn3CCCN)-c3cnccc3C(=O)c24)cc1
160	CN(C)c1ccccc1CC(=O)N1C[C@H]2[C@@H](C1)C(c1ccccc1)(c1ccccc1)CC[C@@H]2O
210 to 211	Cc1oc(-c2ccccc2)nc1COc1nn(Cc2ccc(Oc3ccccc3)cc2)cc1/C=C/C(=O)O
235	O=C1CCCn2c(=O)[nH]c3cccc1c32
115 to 116	Clc1cn2c(Cl)cnc2cn1
160 to 162	CC(C)(C)OC(=O)NCc1ccc(C(=O)NNC(=O)OCc2ccccc2)cc1
72.4 to 74.8	O=C1CCc2cc3c(cc21)CCC3
> 300	Cn1nc2ccc3nc(O)c(O)nc3c2n1
238 to 240	COc1ccc2cc3c(cc2c1)C(=O)OC3=O
46 to 47	CCCCCCCCCCCCCCCCC#CCC(CO)COCCCCCCCCCCCCCCCC (stereo not given)
145 to 150	CC1(C)CC(C2CCC(O)CC2)CC(C)(C)N1 (stereo not given)

melting point [°C]	Compound
> 250	O=C(O)Cn1c(=O)c(=O)[nH]c2cc([N+](=O)[O-])c(-n3ccc(CN4CCCCC4)c3)cc21
130 to 132	COc1cccc(-c2cccc3c2C(=O)OC(C)(C)O3)n1
> 300	Cn1c2ccc([N+](=O)[O-])cc2c2c3ccccc3c(=O)[nH]c21
178 to 179	CC(=O)Nc1nc(CCc2ccc(CCN3CCN(C(=O)OC(C)(C)C)CC3)cc2)cs1
167 to 169	O=c1[nH]c(CCCOc2cccc(CN3CCCCC3)c2)ncc1Cc1ccnc(O)c1
101 to 104	OCc1ccc2c(c1)COC2c1ccc(F)cc1 (stereo not given)
> 220	CCC(C)CC(C)NC1=NS(=O)(=O)c2cc(Cl)ccc2N1 (stereo not given)
235 to 237	CCC(=NNc1ccc(C2=NNC(=O)CC2)cc1)c1ccncc1
114 to 116	OCc1cccc(-c2cccc(F)c2)c1-c1cccc(F)c1
133 to 135	COc1ccc(-c2cccc(C(N)=O)c2)cc1OC1CCCC1
120 to 121	O=c1c(Br)cn(Cc2ccccc2)cc1Cc1ccccc1
98 to 101	O=C(NCCOc1ccc(CC(Oc2ccc(-c3ccccn3)cc2)C(=O)O)cc1)c1ccc(-c2ccccn2)cc1 (stereo not given)
69 to 70	Clc1csc(-c2nc(COc3ccc(CCCn4ccnc4)cc3)co2)c1
92 to 93	CCOP(=O)(/C=C/c1cn(-c2ccccc2)nc1OCc1ccc(OCc2nc(-c3ccccc3)oc2C)c(OC)c1)OCC
127 to 128	O=C(O)c1nc(-c2ccccc2Oc2ccc(F)cc2O)no1
184 to 186	CCC(=O)OCc1cc2c3ccccc3[nH]c(=O)n2n1
184 to 186	CN(C)c1nc2ccccc2n2cnnc12
86 to 90	CCCCc1oc2ccc(N)cc2c1C(=O)c1ccc(OCCCO)cc1
233 to 257	CNC(=O)c1ccc(C=CC(=O)NCC(=O)N(C)c2ccc(Cl)c(COc3cccc4c(OCC(=O)O)cc(C)nc34)c2Cl)cc1

Compound	melting point [°C]
CC[C@@H]1NC(C)(C)CO[C@@]1(O)c1cccc(Cl)c1	160 to 161
CCOCC(=O)Nc1ccc(OC(=O)NC)cc1C	118 to 121

Source: a melting point compilation (Tetko et al.; mined from patent text by program, amines drawn as free bases though some values may be those of a salt)
